Measurements taken from patent publication US10213433B2 (AbbVie Inc., priority 2010, dated 2019).

Each compound was assayed against Bcl-2 protein (Homo sapiens (Human), UniProt P10415) (assay: Bcl-2 binding TR-FRET (Time-Resolved Fluorescence-Resonance-Energy-Transfer) assay). Conditions: inhibition constant for binding to Bcl-2 protein.
Bcl-2 protein, sequence (P10415 whole entry): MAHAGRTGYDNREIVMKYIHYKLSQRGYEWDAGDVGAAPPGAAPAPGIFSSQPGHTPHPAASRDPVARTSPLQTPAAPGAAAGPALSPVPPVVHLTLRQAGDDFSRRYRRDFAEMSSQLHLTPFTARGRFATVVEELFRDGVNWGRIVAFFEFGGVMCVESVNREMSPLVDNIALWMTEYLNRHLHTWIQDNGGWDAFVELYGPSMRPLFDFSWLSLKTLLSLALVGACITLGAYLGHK
Description: The smaller the Ki value, the greater is the binding affinity.
`CN(C)CC(=O)N1CC[C@@H](Nc2ccc(S(=O)(=O)NC(=O)c3ccc(N4CCN(CC5=C(c6ccc(Cl)cc6)CC(C)(C)CC5)CC4)cc3Oc3cnc4[nH]ccc4c3)cc2[N+](=O)[O-])C1` [Compound 255, 4-(4-{[2-(4-chlorophenyl)-4,4-dimethylcyclohex-1-en-1-yl]methyl}piperazin-1-yl)-N-[(4-{[(3R)-1-(N,N-dimethylglycyl)pyrrolidin-3-yl]amino}-3-nitrophenyl)sulfonyl]-2-(1H-pyrrolo[2,3-b]pyridin-5-yloxy)benzamide] showed a Ki of under 0.01 nM.
For `CC1(C)CCC(CN2CCN(c3ccc(C(=O)NS(=O)(=O)c4ccc(NC5CN(C6COC6)C5)c([N+](=O)[O-])c4)c(Oc4cnc5[nH]ccc5c4)c3)CC2)=C(c2ccc(Cl)cc2)C1` [Compound 256, 4-(4-{[2-(4-chlorophenyl)-4,4-dimethylcyclohex-1-en-1-yl]methyl}piperazin-1-yl)-N-[(3-nitro-4-{[1-(oxetan-3-yl)azetidin-3-yl]amino}phenyl)sulfonyl]-2-(1H-pyrrolo[2,3-b]pyridin-5-yloxy)benzamide], the Ki was under 0.01 nM.
Work on `CN(C)CC(=O)N1CCO[C@H](CNc2ccc(S(=O)(=O)NC(=O)c3ccc(N4CCN(CC5=C(c6ccc(Cl)cc6)CC(C)(C)CC5)CC4)cc3Oc3cnc4[nH]ccc4c3)cc2[N+](=O)[O-])C1` [Compound 258, 4-(4-{[2-(4-chlorophenyl)-4,4-dimethylcyclohex-1-en-1-yl]methyl}piperazin-1-yl)-N-{[4-({[(2R)-4-(N,N-dimethylglycyl)morpholin-2-yl]methyl}amino)-3-nitrophenyl]sulfonyl}-2-(1H-pyrrolo[2,3-b]pyridin-5-yloxy)benzamide] yielded a Ki of under 0.01 nM.
For `CN(C)CC(=O)N1CCO[C@@H](CNc2ccc(S(=O)(=O)NC(=O)c3ccc(N4CCN(CC5=C(c6ccc(Cl)cc6)CC(C)(C)CC5)CC4)cc3Oc3cnc4[nH]ccc4c3)cc2[N+](=O)[O-])C1` [Compound 259, 4-(4-{[2-(4-chlorophenyl)-4,4-dimethylcyclohex-1-en-1-yl]methyl}piperazin-1-yl)-N-{[4-({[(2S)-4-(N,N-dimethylglycyl)morpholin-2-yl]methyl}amino)-3-nitrophenyl]sulfonyl}-2-(1H-pyrrolo[2,3-b]pyridin-5-yloxy)benzamide], the Ki was under 0.01 nM.
With `CC1(C)CCC(CN2CCN(c3ccc(C(=O)NS(=O)(=O)c4ccc(N[C@@H]5CCN(CC#N)C5)c([N+](=O)[O-])c4)c(Oc4cnc5[nH]ccc5c4)c3)CC2)=C(c2ccc(Cl)cc2)C1` [Compound 262, 4-(4-{[2-(4-chlorophenyl)-4,4-dimethylcyclohex-1-en-1-yl]methyl}piperazin-1-yl)-N-[(4-{[(3R)-1-(cyanomethyl)pyrrolidin-3-yl]amino}-3-nitrophenyl)sulfonyl]-2-(1H-pyrrolo[2,3-b]pyridin-5-yloxy)benzamide] the Ki was under 0.01 nM.
Work on `O=C(NS(=O)(=O)c1ccc(NCC2CCOCC2)c([N+](=O)[O-])c1)c1ccc(N2CCN(CC3=C(c4ccc(Cl)cc4)CCC4(CCN(C(CF)CF)CC4)C3)CC2)cc1Oc1cnc2[nH]ccc2c1` [Compound 265, 4-(4-{[9-(4-chlorophenyl)-3-(1,3-difluoropropan-2-yl)-3-azaspiro[5.5]undec-8-en-8-yl]methyl}piperazin-1-yl)-N-({3-nitro-4-[(tetrahydro-2H-pyran-4-ylmethyl)amino]phenyl}sulfonyl)-2-(1H-pyrrolo[2,3-b]pyridin-5-yloxy)benzamide] yielded a Ki of under 0.01 nM.
For `CC(C)N1CCC2(CCC(c3ccc(Cl)cc3)=C(CN3CCN(c4ccc(C(=O)NS(=O)(=O)c5ccc(NCC6CCOCC6)c([N+](=O)[O-])c5)c(Oc5cnc6[nH]ccc6c5)c4)CC3)C2)CC1` [Compound 266, 4-(4-{[9-(4-chlorophenyl)-3-isopropyl-3-azaspiro[5.5]undec-8-en-8-yl]methyl}piperazin-1-yl)-N-({3-nitro-4-[(tetrahydro-2H-pyran-4-ylmethyl)amino]phenyl}sulfonyl)-2-(1H-pyrrolo[2,3-b]pyridin-5-yloxy)benzamide], the Ki was under 0.01 nM.
